# Measured values as given in publication PMC6964506 (ACS Omega, 2019).
# Key:
# K-RasG12V = test: K-Ras nanoclustering-FRET; format: cell-based; conditions: HEK cells, 24 h; for dose-dependent effect on K-RasG12V nanoclustering-FRET: various concentrations, compared with 24 and 25
# A375 cells = test: Tumorosphere viability, drug sensitivity score; format: cell-based; conditions: B-RafV600E mutant A375 spheroids, 72 h, 0 to 20 μM
# NCI-H358 cells = test: Tumorosphere viability, drug sensitivity score; format: cell-based; conditions: NCI-H358 tumorospheres, 72 h, 0 to 20 μM
# H-RasG12V = test: H-Ras nanoclustering-FRET; format: cell-based; conditions: HEK cells, 5 μM (FTI-277 0.2 μM), 24 h
# Hs 578T cells = test: Mammosphere formation assay; format: cell-based; conditions: 6 days suspension then 72 h with 5 μM
# [1] = target: K-RasG12V/PDE6D interaction (Homo sapiens, UniProt O43924); test: PDE6D/K-Ras interaction by FLIM-FRET in HEK cells; format: cell-based; conditions: 5 μM, 24 h
# PDE6D/avi-K-RasFMe = PDE6D/avi-K-RasFMe (Homo sapiens, UniProt O43924); test: SPR inhibition of PDE6D binding to captured avi-K-RasFMe
# MDA-MB-231 cells = test: Mammosphere formation assay; format: cell-based; conditions: MDA-MB-231, 6 days suspension then 72 h with 5 μM
# Chain of K-RasG12V/PDE6D interaction (O43924 whole entry): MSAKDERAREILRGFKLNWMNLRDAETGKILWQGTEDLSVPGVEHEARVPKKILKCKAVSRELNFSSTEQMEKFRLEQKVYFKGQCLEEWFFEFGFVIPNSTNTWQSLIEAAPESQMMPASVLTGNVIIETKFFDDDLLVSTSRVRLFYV
# Chain of PDE6D/avi-K-RasFMe (O43924 whole entry): as above
Compound,activity on spheroid viability (DSS) (A375 cells),effect on H-RasG12V nanoclustering-FRET (H-RasG12V),effect on mammosphere formation (SFE) (Hs 578T cells),effect on K-RasG12V/PDE6D FLIM-FRET [1],IC50 (PDE6D/avi-K-RasFMe) [µM],Kd (PDE6D/avi-K-RasFMe) [µM],other results
"c1ccc(Cn2c(-c3ccc(OC[C@H](C4CCNCC4)n4c(-c5ccccc5)nc5ccccc54)cc3)nc3ccccc32)cc1 [Deltarasin, reference compound]",equally high activity in both cell lines,reduced FRET of both Ras isoforms about equally,,,,,"effect on K-RasG12V nanoclustering-FRET (K-RasG12V; 5 μM (FTI-277 0.2 μM)): reduced FRET of both Ras isoforms about equally; IC50 (K-RasG12V; read-out: IC50 K-Ras nanoclustering-FRET (mean ± SEM), n = 3): 0.7 ± 0.4 µM; activity on spheroid viability (DSS) (NCI-H358 cells): equally high activity in both cell lines"
COC(=O)c1ccc(C(=O)NCCCCCCOP(=O)(OC)OCC(C)(C)C(=O)CSC(C)=O)cc1N (stereo not drawn) [compound 23],inactive,No effect,but not H-RasG12V-mutant Hs 578T-mammosphere formation,performed as well as 15 and somewhat better than 22,,,dose-dependent effect on K-RasG12V nanoclustering-FRET (K-RasG12V): significant dose-dependent reduction
O=C(NCCCCCCO)c1cc2ccccc2oc1=O [compound 14],,,,did not block the interaction,18.9 ± 0.2,14.1 ± 0.2,
CCOC(=O)C(C)(COP(=O)(OC)OCCCCCCNC(=O)c1ccc(C(=O)OC)c(N)c1)C(=O)CSC(C)=O (stereo not drawn) [compound 22],,No effect,,,10.27 ± 0.03,7.62 ± 0.02,fold lower affinity than analogue 23 (PDE6D/avi-K-RasFMe; SPR): 2.6 fold; dose-dependent effect on K-RasG12V nanoclustering-FRET (K-RasG12V): significant dose-dependent reduction
COC(=O)c1ccc(C(=O)NCCCCOP(=O)(OC)OCC(C)(C)C(=O)CSC(C)=O)cc1N (stereo not drawn) [compound 25],,,inactive,performed better than 24,,,effect on mammosphere formation (SFE) (MDA-MB-231 cells): inactive
CCOC(=O)C(C)(COP(=O)(OC)OCC1CCC(CNC(=O)c2cc3ccccc3oc2=O)CC1)C(=O)CSC(C)=O (stereo not drawn) [compound 17],,,no significant effect,lacked in cellulo activity,6.7 ± 0.1,4.97 ± 0.07,effect on mammosphere formation (SFE) (MDA-MB-231 cells): no significant effect
C=CC(=O)N1CCN(c2ncnc3c(F)c(-c4c(O)cccc4F)c(Cl)cc23)CC1 [ARS-1620],inactive,,,,,,
